Experimental data reported in the supplement of paper PMC10307832.

Experiments:
Experiment in all cases: relative viability (nuclei count vs DMSO), 5 days (fraction); higher = more cells survive
[1] = compound: CCn1c(-c2nonc2N)nc2cnc(Oc3cccc(NC(=O)c4ccc(OCCN5CCOCC5)cc4)c3)cc21 + Cc1nc(NC(=O)N2CCC[C@H]2C(N)=O)sc1-c1ccnc(C(C)(C)C(F)(F)F)c1 [Alpelisib] (partner 2 µM)
How it was run: (§1)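 Relative viability divides the nuclei count in treated wells by that in vehicle wells. Lung cancer cell lines were seeded in 1536-well plates, dosed by pin tool the next day, and fixed and stained after 5 days in one step with final 0.05% Triton X-100, 1% formaldehyde and 1 ug/ml Hoechst. Dosing was a single drug or a fixed anchor-drug dose plus five library-drug doses (not always all listed) in √10 steps, and values are medians of duplicate plates imaged at 4×.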

[2] = compound: CCn1c(-c2nonc2N)nc2cnc(Oc3cccc(NC(=O)c4ccc(OCCN5CCOCC5)cc4)c3)cc21 + CC(=O)Nc1cccc(-n2c(=O)n(C3CC3)c(=O)c3c(Nc4ccc(I)cc4F)n(C)c(=O)c(C)c32)c1 [Trametinib] (partner 0.02 µM)
How it was run: as §1

[3] = compound: CCC1=CN=CN=C1N2CCN(CC2)CC3=NC4=C(N3)C=C(C=C4)C(F)(F)F + CC(=O)c1c(C)c2cnc(Nc3ccc(N4CCNCC4)cn3)nc2n(C2CCCC2)c1=O [Palbociclib] (partner 0.5 µM)
How it was run: as §1

Mirin + Luminespib = compound: N=C1NC(=O)/C(=C/c2ccc(O)cc2)S1 [Mirin] + CCNC(=O)c1noc(-c2cc(C(C)C)c(O)cc2O)c1-c1ccc(CN2CCOCC2)cc1 [Luminespib] (partner 0.01 µM)
How it was run: as §1

| Cell Line | relative viability ([1]; first compound 0.04 µM) | relative viability ([1]; first compound 0.1265 µM) | relative viability ([1]; first compound 0.4 µM) | relative viability ([1]; first compound 1.265 µM) | relative viability ([1]; first compound 4 µM) | relative viability ([2]; first compound 0.04 µM) | relative viability ([2]; first compound 0.1265 µM) | relative viability ([2]; first compound 0.4 µM) | relative viability ([2]; first compound 1.265 µM) | relative viability ([2]; first compound 4 µM) | relative viability ([3]; first compound 0.04 µM) | relative viability ([3]; first compound 0.1265 µM) | relative viability ([3]; first compound 0.4 µM) | relative viability ([3]; first compound 1.265 µM) | relative viability ([3]; first compound 4 µM) | relative viability (Mirin + Luminespib; first compound 0.25 µM) | relative viability (Mirin + Luminespib; first compound 2.5 µM) | relative viability (Mirin + Luminespib; first compound 7.906 µM) | relative viability (Mirin + Luminespib; first compound 25 µM) | relative viability (Mirin + Luminespib; first compound 0.7906 µM) |
| --- | --- | --- | --- | --- | --- | --- | --- | --- | --- | --- | --- | --- | --- | --- | --- | --- | --- | --- | --- | --- |
| NCI-H1915 | 1.03 | 1.09 | 1.03 | 1.08 | 1.04 | 0.267 | 0.31 | 0.309 | 0.227 | 0.221 | 0.478 | 0.525 | 0.515 | 0.451 | 0.522 | 0.776 | 0.783 | 0.676 | 0.77 | – |
| NCI-H2009 | 1.01 | 0.987 | 0.857 | 0.745 | 0.5 | 0.199 | 0.192 | 0.161 | 0.16 | 0.142 | 0.195 | 0.238 | 0.184 | 0.15 | 0.0584 | 0.983 | 1.02 | 0.925 | 1.07 | 1.15 |
| ChaGo-K-1 | – | – | – | – | – | 1.06 | 0.928 | 0.844 | 0.89 | 0.866 | 0.976 | 0.946 | 0.929 | 0.907 | 0.881 | 0.555 | 0.705 | 0.429 | 0.306 | 0.295 |
| COR-L 105 | 1.08 | 0.694 | 0.938 | 0.596 | 0.459 | 0.343 | 0.42 | 0.365 | 0.319 | 0.376 | 0.416 | 0.444 | 0.371 | 0.363 | 0.428 | 0.741 | 0.692 | 0.51 | 0.544 | 0.852 |
| NCI-H2170 | 0.748 | 0.747 | 0.912 | 0.719 | 0.817 | 0.885 | 0.941 | 0.96 | 0.926 | 0.974 | 0.397 | 0.402 | 0.375 | 0.385 | 0.386 | 0.828 | 0.934 | 0.693 | 0.663 | 0.656 |
| A549 | 0.986 | 0.785 | 0.426 | 0.23 | 0.0785 | – | – | – | – | – | – | – | – | – | – | – | – | – | – | – |
| NCI-H1975 | 0.548 | 0.439 | 0.401 | 0.221 | 0.202 | 0.261 | 0.256 | 0.219 | 0.154 | 0.176 | 0.62 | 0.479 | 0.568 | 0.461 | 0.577 | 0.201 | 0.16 | 0.306 | 0.125 | 0.254 |
| Calu-6 | 0.861 | 0.827 | 0.582 | 0.477 | 0.455 | – | – | – | – | – | – | – | – | – | – | – | – | – | – | – |
| NCI-H1648 | – | – | – | – | – | 0.511 | 0.431 | 0.576 | 0.779 | 0.705 | 0.235 | – | – | 0.296 | 0.303 | – | – | – | – | – |
| NCI-H1623 | – | – | – | – | – | – | – | – | – | – | – | – | – | – | – | 0.547 | 0.574 | 0.449 | 0.325 | 0.506 |
| NCI-H322M | 0.895 | 0.816 | 0.759 | 0.939 | 0.909 | 0.631 | 0.604 | 0.522 | 0.487 | 0.57 | 0.455 | 0.452 | 0.514 | 0.489 | 0.521 | 0.924 | 0.913 | 1.05 | 0.583 | 0.745 |
